Assay results: US20100168228A1, “NOVEL CHEMOTHERAPEUTIC AGENTS AGAINST INFLAMMATION AND CANCER” (RELIANCE LIFE SCIENCES PVT. LTD., priority 2006, published 2010)

Assays:
Type in all cases: cell-based, human
p53 = p53 mRNA, semi-quantitative RT-PCR, Jurkat; details: various doses, 12 h
Protocol: (§1) RNA extraction: Total RNA was isolated using the standard TRIzol method (Gibco BRL). Briefly, 3×10^6 cells were treated with different concentrations of the compounds as indicated in the legends to Figures and after harvesting the cell pellet was resuspended in 1 ml of TRIzol with repeated pipetting. The homogenized sample was incubated at RT for 5 min to permit complete dissociation of the nucleoprotein complexes. […] of chloroform was added and the tubes were shaken vigorously for 15 sec by hand and then incubated at RT for 3 mins. The samples were then centrifuged at 10,000 RPM for 15 mins at 4° C. The aqueous phase was transferred to a fresh tube and 500 μl of Isopropyl alcohol was added, followed by incubation at RT for 10 mins. The samples were centrifuged at 10,000 RPM for 10 min at 4° C. and the RNA pellet was washed with 1 ml of 75% ethanol followed by centrifugation at maximum speed at 4° C. for 10 mins. Washing was repeated once more and after removing the supernatant, the RNA pellet was dried and dissolved in 20 ul of RNase free water (Promega). […]
(§2) Semi-quantitative reverse transcriptase (RT)-PCR: Changes in gene expression were verified by semi-quantitative RT-PCR using GAPDH as an internal normalization standard. 1 μg of total RNA (quantified by spectrophotometer) was used to reverse transcribe into cDNA. […]

bcl-2 = bcl-2 mRNA, semi-quantitative RT-PCR, Jurkat; details: 0-500 nM, 24 h
Protocol: FIG. 18: Effects of compound 27 on p53, Bax, bcl-2 mRNA levels in Jurkat cells. Expression of human p53, bax-α, bcl-2, was assayed by semi quantitative RT-PCR analysis with GAPDH as internal control. Cells were treated for 24 h with various doses of the compound (0, 50, 100 and 500 nM), then total RNA was extracted and submitted to RT-PCR.
as §1, with “mins.” for “mins. The samples were centrifuged at 10,000 RPM for 10 min at 4° C. and the RNA pellet was washed with 1 ml of 75% ethanol followed by centrifugation at maximum speed at 4° C. for 10 mins. Washing was repeated once more and after removing the supernatant, the RNA pellet was dried and dissolved in 20 ul of RNase free water (Promega).”
as §2

NF-κB = NF-κB activation assay, HeLa; details: 15 μM 3 h, 0.1 nM TNF 30 min
Protocol: FIG. 4: Effect of CAMVE on NF-κB activation in different cell lines. A. HeLa, MCF-7, U937, were incubated at 37° C. for 3 h with 15 μM dose of CAMVE and then stimulated with 0.1 nM TNF for 30 min. After these treatments, nuclear extracts were prepared and assayed for NF-κB using BD Transfactor ELISA method. B. RAW 264.7 cells pretreated with indicated doses of CAMVE were stimulated with 100 ng/ml LPS for 30 min and assayed for NF-κB activation.
Cell pellet was resuspended in lysis buffer (10 mM HEPES, pH 7.9, 1.5 mM MgCl2, 10 mM KCl, 1 mM PMSF, 1 mMDTT, 0.5% NP 40, 0.1 mM EGTA and 0.1 mM EDTA) and allowed to swell on ice for 15 min, followed by centrifugation at 3300×g for 20 min. The cell pellet was resuspended in a volume of lysis buffer equal to the cell pellet volume. The cell suspension was slowly drawn down into a syringe and ejected the content in a single stroke. Disrupted cells were incubated for 15 min on ice, and the disrupted cell suspension was centrifuged at 10,000×g for 20 min at 4° C. […]
The assay was performed by using wells coated with oligonucleotides having the consensus DNA binding sites for the specific transcription factors. […] Bound transcription factor was detected by a specific Primary Antibody. […] After addition of the substrate, the Absorbance was recorded at 655 nm.

ICAM1 (CD54) = assay: ICAM 1 (CD 54) expression by flow cytometry
Protocol: FIG. 7: Effect of CAMVE on TNF or LPS induced ICAM1 (CD54) expression. Cells (5×10^5 cells/ml) were pretreated with different concentrations of CAMVE for 3 h and then treated with TNF (0.1 nM) or SA-LPS (100 ng/ml) for 12 h at 37° C. in a CO2 incubator. Treated cells were washed and stained with anti human CD54-FITC conjugated antibody to measure the amount of surface ICAM1 expression. The relative mean fluorescence intensity (MFI) was measured using FACS Calibur (BD). A. Representative histogram overlay showing TNF or LPS stimulated (1), basal (2), CAMVE pretreated (3). B. Values are given as MFI (mean±S.D.) in percent of basal expression, which was set to 100%.
Cells were pretreated with different concentrations of CAMVE for 3 h and then treated with 0.1 nM of TNF or 100 ng/ml SA-LPS for 12 h at 37° C. in a CO2 incubator. Extent of ICAM 1 expression was detected by staining the washed cells with FITC-labeled monoclonal antibody which binds to the cells expressing the CD 54 (ICAM 1). Unbound FITC-conjugated antibody is then washed from the cells and the cells were resuspended in 0.5 ml of 1% paraformaldehyde, and analyzed using Flow Cytometer (B D FACS Calibur). Cells CD54 structure is fluorescently stained, with the intensity of staining is directly proportional to the density of CD54.

SMILES	p53 mRNA level (p53)	anti-apoptotic bcl-2 mRNA levels (bcl-2)	TNF-induced NF-κB activation (NF-κB)	basal ICAM1 expression (ICAM1 (CD54); CAMVE alone)	TNF or LPS induced ICAM1 expression (ICAM1 (CD54); pretreated 3 h, TNF 0.1 nM or SA-LPS 100 ng/ml 12 h)
COc1cc([C@@H]2Oc3c(OC)cc(/C=C/C(=O)O)cc3[C@H]2C(=O)O)ccc1O [compound 27, 5-[(E)-2-carboxyvinyl]-2β-(4-hydroxy-3-methoxyphenyl)-7-methoxy-2,3-dihydro-1-benzofuran-3α-carboxylic acid]	only slight increase in p53 mRNA level	downregulated in a dose dependent manner			
COC(=O)c1ccc(OC(=O)/C=C/c2ccc(O)c(O)c2)c(OC)c1 [compound 1, Methyl 4-{[(2E)-3-(3,4-dihydroxyphenyl)prop-2-enoyl]oxy}-3-methoxybenzoate]			blocks TNF-induced NF-κB activation	not altered by incubation with CAMVE alone	blocked in CAMVE pretreated cells
